Test results published in the supplement of paper PMC4862054.

Key:
Settings in all cases: incubation time: 72 h
BT-474 [1] = test: normalised response (% of control), CellTox Green; higher = less cell death (100 = DMSO, 0 = benzethonium chloride kill control)
Procedure, shortened: (§1)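 Each value is the plate-normalised signal at one concentration of the series. Breast cancer cell lines (20 µl suspension) were incubated 72 h in 384-well plates with compound at 5 concentrations in 10-fold steps over a compound-specific 10,000-fold range. CellTox Green and then CellTiter-Glo were read, and each plate was scaled to 0.1 % DMSO (100) and a positive kill control (0).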

BT-549 [2] = test: as above
Procedure, shortened: as §1

CAL-120 [3] = test: as above
Procedure, shortened: as §1

CAL-148 [4] = test: as above
Procedure, shortened: as §1

CAL-51 [5] = test: as above
Procedure, shortened: as §1

CAL-85-1 [6] = test: as above
Procedure, shortened: as §1

DU-4475 [7] = test: as above
Procedure, shortened: as §1

HCC1143 [8] = test: as above
Procedure, shortened: as §1

HCC1599 [9] = test: as above
Procedure, shortened: as §1

HCC1937 [10] = test: as above
Procedure, shortened: as §1

HDQ-P1 [11] = test: as above
Procedure, shortened: as §1

Hs578T [12] = test: as above
Procedure, shortened: as §1

MCF-10A [13] = test: as above
Procedure, shortened: as §1

MDA-MB-436 [14] = test: as above
Procedure, shortened: as §1

MDA-MB-453 [15] = test: as above
Procedure, shortened: as §1

MDA-MB-468 [16] = test: as above
Procedure, shortened: as §1

MFM-223 [17] = test: as above
Procedure, shortened: as §1

BT-474 [18] = test: normalised response (% of control), CellTiter-Glo; higher = more viable cells (100 = DMSO, 0 = benzethonium chloride kill control)
Protocol: (§2)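 DSRT, 72 h incubation, CellTox Green / CellTiter-Glo readout. Signal is normalised to DMSO and benzethonium chloride controls. Value is the normalised response at dose 3.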

BT-549 [19] = test: as above
Protocol: as §2

CAL-120 [20] = test: as above
Protocol: as §2

CAL-148 [21] = test: as above
Protocol: as §2

CAL-51 [22] = test: as above
Protocol: as §2

CAL-85-1 [23] = test: as above
Protocol: as §2

DU-4475 [24] = test: as above
Protocol: as §2

HCC1143 [25] = test: as above
Protocol: as §2

HCC1599 [26] = test: as above
Protocol: as §2

HCC1937 [27] = test: as above
Protocol: as §2

HDQ-P1 [28] = test: as above
Protocol: as §2

Hs578T [29] = test: as above
Protocol: as §2

MCF-10A [30] = test: as above
Protocol: as §2

MDA-MB-231 [31] = test: as above
Protocol: as §2

MDA-MB-436 [32] = test: as above
Protocol: as §2

MDA-MB-453 [33] = test: as above
Protocol: as §2

MDA-MB-468 [34] = test: as above
Protocol: as §2

MFM-223 [35] = test: as above
Protocol: as §2

SK-BR-3 = test: as above
Protocol: as §2

MDA-MB-231 [36] = test: normalised response (% of control), CellTox Green; higher = less cell death (100 = DMSO, 0 = benzethonium chloride kill control)
Procedure, shortened: as §1

c1ccc([C@H]2CN3CCSC3=N2)cc1 [Levamisole] (100 nM) showed a normalised response (BT-474 [1]) of 100%, a normalised response (BT-549 [2]) of 99.2% and a normalised response (CAL-120 [3]) of 102%. The normalised response (CAL-148 [4]) was 103%, the normalised response (CAL-51 [5]) was 112% and the normalised response (CAL-85-1 [6]) was 107%. It also gave a normalised response (DU-4475 [7]) of 101%, a normalised response (HCC1143 [8]) of 93.9% and a normalised response (HCC1599 [9]) of 104%. It also gave a normalised response (HCC1937 [10]) of 76.8%, a normalised response (HDQ-P1 [11]) of 102% and a normalised response (Hs578T [12]) of 76.6%. For the same compound, the normalised response (MCF-10A [13]) was 87.5%, the normalised response (MDA-MB-436 [14]) was 99.2% and the normalised response (MDA-MB-453 [15]) was 101%. It also gave a normalised response (MDA-MB-468 [16]) of 120%, a normalised response (MFM-223 [17]) of 106% and a normalised response (BT-474 [18]) of 106%. For the same compound, the normalised response (BT-549 [19]) was 98.3%, the normalised response (CAL-120 [20]) was 104% and the normalised response (CAL-148 [21]) was 114%. It also gave a normalised response (CAL-51 [22]) of 101%, a normalised response (CAL-85-1 [23]) of 103% and a normalised response (DU-4475 [24]) of 107%. For the same compound, the normalised response (HCC1143 [25]) was 102%, the normalised response (HCC1599 [26]) was 106% and the normalised response (HCC1937 [27]) was 96.8%. It also gave a normalised response (HDQ-P1 [28]) of 100%, a normalised response (Hs578T [29]) of 110% and a normalised response (MCF-10A [30]) of 110%. The normalised response (MDA-MB-231 [31]) was 103%, the normalised response (MDA-MB-436 [32]) was 107% and the normalised response (MDA-MB-453 [33]) was 110%. For the same compound, the normalised response (MDA-MB-468 [34]) was 113%, the normalised response (MFM-223 [35]) was 113% and the normalised response (SK-BR-3) was 108%.

CNNCc1ccc(C(=O)NC(C)C)cc1 [Procarbazine] (100 nM) showed a normalised response (BT-474 [1]) of 102%, a normalised response (BT-549 [2]) of 102% and a normalised response (CAL-120 [3]) of 103%. For the same compound, the normalised response (CAL-148 [4]) was 102%, the normalised response (CAL-51 [5]) was 112% and the normalised response (CAL-85-1 [6]) was 99.7%. It also gave a normalised response (DU-4475 [7]) of 107%, a normalised response (HCC1143 [8]) of 99.4% and a normalised response (HCC1599 [9]) of 98.7%. It also gave a normalised response (HCC1937 [10]) of 94.1%, a normalised response (Hs578T [12]) of 63.4% and a normalised response (MCF-10A [13]) of 98.5%. It also gave a normalised response (MDA-MB-231 [36]) of 119%, a normalised response (MDA-MB-436 [14]) of 103% and a normalised response (MDA-MB-453 [15]) of 106%. It also gave a normalised response (MDA-MB-468 [16]) of 95.5%, a normalised response (BT-474 [18]) of 100% and a normalised response (BT-549 [19]) of 109%. For the same compound, the normalised response (CAL-120 [20]) was 106%, the normalised response (CAL-148 [21]) was 104% and the normalised response (CAL-51 [22]) was 102%. It also gave a normalised response (CAL-85-1 [23]) of 101%, a normalised response (DU-4475 [24]) of 101% and a normalised response (HCC1143 [25]) of 108%. It also gave a normalised response (HCC1599 [26]) of 107%, a normalised response (HCC1937 [27]) of 103% and a normalised response (HDQ-P1 [28]) of 105%. It also gave a normalised response (Hs578T [29]) of 104%, a normalised response (MCF-10A [30]) of 109% and a normalised response (MDA-MB-231 [31]) of 105%. The normalised response (MDA-MB-436 [32]) was 95.4%, the normalised response (MDA-MB-453 [33]) was 104% and the normalised response (MDA-MB-468 [34]) was 99.4%. For the same compound, the normalised response (MFM-223 [35]) was 103% and the normalised response (SK-BR-3) was 105%.

CN1CCN(CCOc2cc(OC3CCOCC3)c3c(Nc4c(Cl)ccc5c4OCO5)ncnc3c2)CC1 [Saracatinib] (100 nM) gave a normalised response (BT-474 [1]) of 99.5%, a normalised response (CAL-120 [3]) of 99% and a normalised response (CAL-148 [4]) of 84.5%. For the same compound, the normalised response (CAL-51 [5]) was 90.7%, the normalised response (CAL-85-1 [6]) was 88.8% and the normalised response (DU-4475 [7]) was 102%. It also gave a normalised response (HCC1143 [8]) of 56.8%, a normalised response (HCC1599 [9]) of 94.3% and a normalised response (HCC1937 [10]) of 88.4%. The normalised response (HDQ-P1 [11]) was 90.7%, the normalised response (MCF-10A [13]) was 89.4% and the normalised response (MDA-MB-231 [36]) was 90.6%. The normalised response (MDA-MB-436 [14]) was 97%, the normalised response (MDA-MB-453 [15]) was 106% and the normalised response (BT-474 [18]) was 84.4%. For the same compound, the normalised response (BT-549 [19]) was 104%, the normalised response (CAL-120 [20]) was 95.1% and the normalised response (CAL-148 [21]) was 98.5%. It also gave a normalised response (CAL-51 [22]) of 106%, a normalised response (CAL-85-1 [23]) of 102% and a normalised response (DU-4475 [24]) of 93.9%. The normalised response (HCC1143 [25]) was 96.1%, the normalised response (HCC1599 [26]) was 111% and the normalised response (HCC1937 [27]) was 94.2%. For the same compound, the normalised response (HDQ-P1 [28]) was 93.5%, the normalised response (Hs578T [29]) was 104% and the normalised response (MCF-10A [30]) was 78.2%. For the same compound, the normalised response (MDA-MB-231 [31]) was 78.7%, the normalised response (MDA-MB-436 [32]) was 95.1% and the normalised response (MDA-MB-453 [33]) was 106%. The normalised response (MDA-MB-468 [34]) was 95.5%, the normalised response (MFM-223 [35]) was 94.6% and the normalised response (SK-BR-3) was 109%.

With Cn1cncc1[C@@](N)(c1ccc(Cl)cc1)c1ccc2c(c1)c(-c1cccc(Cl)c1)cc(=O)n2C [Tipifarnib] (100 nM) the normalised response (BT-474 [1]) was 98.2%, the normalised response (BT-549 [2]) was 107% and the normalised response (CAL-120 [3]) was 90.6%. It also gave a normalised response (CAL-148 [4]) of 92.2%, a normalised response (CAL-51 [5]) of 63.4% and a normalised response (CAL-85-1 [6]) of 108%. The normalised response (DU-4475 [7]) was 98.1%, the normalised response (HCC1143 [8]) was 104% and the normalised response (HCC1599 [9]) was 107%. For the same compound, the normalised response (HCC1937 [10]) was 99.6%, the normalised response (HDQ-P1 [11]) was 103% and the normalised response (Hs578T [12]) was 57.8%. For the same compound, the normalised response (MCF-10A [13]) was 99.7%, the normalised response (MDA-MB-436 [14]) was 20.8% and the normalised response (MDA-MB-453 [15]) was 98.7%. The normalised response (MDA-MB-468 [16]) was 118%, the normalised response (MFM-223 [17]) was 99.9% and the normalised response (BT-474 [18]) was 87.6%. For the same compound, the normalised response (BT-549 [19]) was 86.9%, the normalised response (CAL-120 [20]) was 89.3% and the normalised response (CAL-148 [21]) was 85.3%. It also gave a normalised response (CAL-51 [22]) of 72%, a normalised response (CAL-85-1 [23]) of 104% and a normalised response (DU-4475 [24]) of 77.8%. For the same compound, the normalised response (HCC1143 [25]) was 88.8%, the normalised response (HCC1599 [26]) was 91.5% and the normalised response (HCC1937 [27]) was 80.8%. The normalised response (HDQ-P1 [28]) was 81.2%, the normalised response (Hs578T [29]) was 83.1% and the normalised response (MCF-10A [30]) was 83.9%. The normalised response (MDA-MB-231 [31]) was 92.7%, the normalised response (MDA-MB-436 [32]) was 71.6% and the normalised response (MDA-MB-453 [33]) was 75.7%. For the same compound, the normalised response (MDA-MB-468 [34]) was 74.9%, the normalised response (MFM-223 [35]) was 82.6% and the normalised response (SK-BR-3) was 69.3%.
